According to the supplement of paper PMC10307832:

What was measured:
Assay in all cases: relative viability (nuclei count vs DMSO), 5 days (fraction); higher = more cells survive
Obatoclax + OSI-027 = compound: COC1=CC(c2cc3ccccc3[nH]2)=N/C1=C\c1[nH]c(C)cc1C [Obatoclax] + COc1cccc2cc(-c3nc([C@H]4CC[C@H](C(=O)O)CC4)n4ncnc(N)c34)[nH]c12 [OSI-027] (partner 0.5 µM)
Summary of the method: (§1)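 After 5 days of treatment, lung cancer cells in 1536-well plates were fixed and stained in a single step (final 0.05% Triton X-100, 1% formaldehyde, 1 ug/ml Hoechst) and their nuclei counted on 4× images. Treatment had been applied by pin tool the day after seeding as one drug alone or as a fixed anchor-drug dose with five library-drug doses (not always all listed) in √10 steps. Relative viability is the nuclei count of treated wells divided by that of vehicle wells, and values are medians of duplicate plates.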

[1] = compound: CC1=CC(=NN1)NC2=CC(=NC(=N2)/C=C/C3=CC=CC=C3)N4CCN(CC4)C + CCNC(=O)c1noc(-c2cc(C(C)C)c(O)cc2O)c1-c1ccc(CN2CCOCC2)cc1 [Luminespib] (partner 0.01 µM)
Summary of the method: as §1

[2] = compound: CC1=CC(=NN1)NC2=CC(=NC(=N2)/C=C/C3=CC=CC=C3)N4CCN(CC4)C + COc1cccc2cc(-c3nc([C@H]4CC[C@H](C(=O)O)CC4)n4ncnc(N)c34)[nH]c12 [OSI-027] (partner 0.5 µM)
Summary of the method: as §1

Bortezomib + Vorinostat = compound: CC(C)C[C@H](NC(=O)[C@H](Cc1ccccc1)NC(=O)c1cnccn1)B(O)O [Bortezomib] + O=C(CCCCCCC(=O)Nc1ccccc1)NO [Vorinostat] (partner 1 µM)
Summary of the method: as §1

Row | Cell Line | relative viability (Obatoclax + OSI-027; first compound 0.01 µM) | relative viability (Obatoclax + OSI-027; first compound 0.03162 µM) | relative viability (Obatoclax + OSI-027; first compound 0.1 µM) | relative viability (Obatoclax + OSI-027; first compound 0.3162 µM) | relative viability (Obatoclax + OSI-027; first compound 1 µM) | relative viability ([1]; first compound 0.08 µM) | relative viability ([1]; first compound 0.253 µM) | relative viability ([1]; first compound 0.8 µM) | relative viability ([1]; first compound 2.53 µM) | relative viability ([1]; first compound 8 µM) | relative viability ([2]; first compound 0.08 µM) | relative viability ([2]; first compound 0.253 µM) | relative viability ([2]; first compound 0.8 µM) | relative viability ([2]; first compound 2.53 µM) | relative viability ([2]; first compound 8 µM) | relative viability (Bortezomib + Vorinostat; first compound 0.0002 µM) | relative viability (Bortezomib + Vorinostat; first compound 0.000632 µM) | relative viability (Bortezomib + Vorinostat; first compound 0.002 µM) | relative viability (Bortezomib + Vorinostat; first compound 0.006325 µM) | relative viability (Bortezomib + Vorinostat; first compound 0.02 µM)
1 | H3255 | 0.584 | 0.591 | 0.751 | 0.617 | 0.666 | 1.03 | 0.991 | 0.892 | 0.771 | 0.559 | 0.582 | 0.541 | 0.579 | 0.589 | 0.382 | 0.811 | 0.827 | 0.748 | 0.253 | 0.244
2 | NCI-H1734 | 0.648 | 0.612 | 0.569 | 0.465 | 0.254 | 0.178 | 0.236 | 0.163 | 0.145 | 0.109 | 0.637 | 0.527 | 0.475 | 0.234 | 0.139 | 0.832 | 0.845 | 0.635 | 0.115 | 0.0944
3 | NCI-H1915 | 0.613 | 0.585 | 0.584 | 0.604 | 0.546 | 0.772 | 0.868 | 0.745 | 0.471 | 0.12 | 0.635 | 0.496 | 0.557 | 0.371 | 0.271 | 0.514 | 0.531 | 0.555 | 0.286 | 0.0313
4 | NCI-H2009 | 0.582 | 0.608 | 0.535 | 0.229 | 0.247 | 0.989 | 1.04 | 0.987 | 1.05 | 0.2 | 0.615 | 0.672 | 0.638 | 0.227 | 0.111 | 0.745 | 0.735 | 0.703 | 0.0608 | 0.0437
5 | NCI-H1651 | 0.628 | 0.712 | 0.804 | 0.428 | 0.252 | 0.754 | 0.854 | 0.912 | 0.643 | 0.244 | 0.613 | 0.749 | 0.63 | 0.293 | 0.133 | 0.568 | 0.571 | 0.534 | 0.587 | 0.134
6 | HOP-62 | 0.858 | 0.848 | 0.754 | 0.819 | 0.583 | 0.953 | 0.966 | 0.888 | 0.849 | 0.35 | 0.875 | 0.865 | 0.861 | 0.52 | 0.38 | 0.589 | 0.654 | 0.6 | 0.131 | 0.0601
7 | CAL-12T | 0.62 | 0.609 | 0.829 | 0.138 | 0.128 | 0.429 | 0.512 | 0.356 | 0.123 | 0.074 | 0.666 | 0.651 | 0.447 | 0.14 | 0.12 | 0.781 | 0.922 | 0.691 | 0.281 | 0.0995
8 | LCLC-103H | 0.462 | 0.462 | 0.404 | 0.457 | 0.541 | 0.912 | 1.03 | 0.876 | 0.814 | 0.269 | 0.504 | 0.486 | 0.463 | 0.378 | 0.332 | 0.791 | 0.773 | 0.827 | 0.359 | 0.236
9 | NCI-H3122 | 0.931 | 0.976 | 1.02 | 0.859 | 0.2 | 0.0829 | 0.0907 | 0.096 | 0.0908 | 0.0887 | 0.901 | 0.763 | 0.975 | 0.675 | 0.186 | 0.993 | 1.07 | 1.46 | 0.515 | 0.108
10 | NCI-H1395 | 0.659 | 0.539 | 0.473 | 0.557 | 0.465 | 0.782 | 0.687 | 0.699 | 0.401 | 0.293 | 0.56 | 0.621 | 0.625 | 0.387 | 0.26 | 0.762 | 0.547 | 0.515 | 0.301 | 0.306
11 | PC-14 | 0.729 | 0.834 | 0.67 | 0.519 | 0.0675 | 0.169 | 0.158 | 0.12 | 0.121 | 0.0829 | 0.856 | 0.825 | 0.802 | 0.0598 | 0.0365 | 0.778 | 0.717 | 0.365 | 0.0298 | 0.0377
12 | NCI-H2342 | 0.654 | 0.615 | 0.728 | 0.507 | 0.618 | 0.543 | 0.699 | 0.705 | 0.546 | 0.536 | 0.557 | 0.594 | 0.662 | 0.577 | 0.381 | 1.01 | 0.789 | 0.838 | 0.748 | 0.627
13 | BEN | 0.28 | 0.297 | – | 0.283 | 0.32 | 0.634 | 0.207 | 0.22 | 0.217 | 0.137 | 0.294 | 0.264 | 0.271 | 0.244 | 0.162 | 0.559 | 0.586 | 0.558 | 0.509 | 0.317
14 | EPLC-272H | 0.277 | 0.279 | 0.333 | 0.247 | 0.203 | 0.456 | 0.458 | 0.149 | 0.11 | 0.0775 | 0.305 | 0.277 | 0.231 | 0.202 | 0.171 | 0.333 | 0.4 | 0.0774 | 0.0603 | 0.0567
15 | LK-2 | 0.261 | 0.214 | 0.225 | 0.256 | 0.192 | 0.174 | 0.175 | 0.226 | 0.16 | 0.151 | 0.207 | 0.222 | 0.179 | 0.171 | 0.124 | 0.401 | 0.416 | 0.323 | 0.173 | 0.195
16 | ChaGo-K-1 | 0.694 | 0.549 | 0.522 | 0.512 | 0.63 | 0.644 | 0.613 | 0.629 | 0.384 | 0.159 | 0.566 | 0.548 | 0.528 | 0.191 | 0.131 | 0.709 | 0.753 | 0.827 | 0.441 | 0.162
